Patent US20080234288A1, “Hcv Inhibiting Sulfonamides” (priority 2003, published 2008)
pEC50: −log10 of the molar value.

Tested on: HCV replicon (NS3-NS5B regions of HCV type 1b) in Huh-7 luc/neo cells
Assay: HCV replicon assay, stable replicon cell reporter assay (Huh-Luc, luciferase)
Assay type: cell-based
Details: Hepatitis C virus, Huh-7, 72 h, incubation of three days, luciferase activity
Source text: The compounds of the present invention were examined for activity in the inhibition of HCV RNA replication in a cellular assay. […] The cellular assay was based on a bicistronic expression construct, as described by Lohmann et al. (1999) Science vol. 285 pp. 110-113 with modifications described by Krieger et al. (2001) Journal of Virology 75: 4614-4624, in a multi-target screening strategy. In essence, the method is as follows.
The assay utilized the stably transfected cell line Huh-7 luc/neo (hereafter referred to as Huh-Luc; kindly provided by Dr Ralf Bartenschlager, Reblikon GmBh, Germany). This cell line harbors an RNA encoding a bicistronic expression construct comprising the wild type NS3-NS5B regions of HCV type 1b translated from an Internal Ribosome Entry Site (IRES) from encephalomyocarditis virus (EMCV), preceded by a reporter portion (FfL-luciferase), and a selectable marker portion (neo^R, neomycine phosphotransferase). The construct was bordered by 5′ and 3′ NTRs (non-translated regions) from HCV type 1b. Continued culture of the replicon cells in the presence of G418 (neo^R) is dependent on the replication of the HCV RNA. The stably transfected replicon cells that express HCV RNA, which replicates autonomously and to high levels, encoding inter alia luciferase, were used for screening the antiviral compounds.
The replicon cells were plated in 384 well plates in the presence of the test and control compounds which were added in various concentrations. Following an incubation of three days, HCV replication was measured by assaying luciferase activity (using standard luciferase assay substrates and reagents and a Perkin Elmer ViewLux™ ultraHTS microplate imager). Replicon cells in the control cultures have high luciferase expression in the absence of any inhibitor. The inhibitory activity of the compound on luciferase activity was monitored on the Huh-Luc cells, enabling a dose-response curve for each test compound. EC50 values were then calculated, which value represents the amount of the compound required to decrease by 50% the level of detected luciferase activity, or more specifically, the ability of the genetically linked HCV replicon RNA to replicate (Table 1).

| Structure (SMILES) | pEC50 |
| --- | --- |
| Cc1nc(-c2ccc(S(=O)(=O)N(CC(C)C)CC(O)C(Cc3ccccc3)NC(=O)OCc3cncs3)cc2)co1 (centres unmarked) [Compound 44, (1-Benzyl-2-hydroxy-3-{isobutyl-[4-(2-methyl-oxazol-4-yl)-benzenesulfonyl]-amino}-propyl)-carbamic acid thiazol-5-ylmethyl ester] | 4.49 to 5.00 |
| CC(C)CN(CC(O)C(Cc1ccccc1)NC(=O)OCc1cncs1)S(=O)(=O)c1ccc2nc(N)oc2c1 (centres unmarked) [Compound 45, {3-[(2-Amino-benzooxazole-6-sulfonyl)-isobutyl-amino]-1-benzyl-2-hydroxy-propyl}-carbamic acid thiazol-5-ylmethyl ester] | 5.00 to 5.70 |
